Measured values: patent publication US9573961B2, “Inhibitors of the renal outer medullary potassium channel” (Merck Sharp & Dohme Corp., priority 2012, dated 2017)
Read-outs that look alike come from different tables or passages of the source.

Assays:
Kir1.1 (ROMK1) = Kir1.1 (ROMK1) (Homo sapiens (Human), UniProt P48048); assay: Electrophysiology Assay (whole cell voltage clamp, IonWorks Quattro); type: cell-based; details: block during voltage step to 0 mV
Outline: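 CHO cells stably expressing the channel, induced overnight with 1 mM sodium butyrate, were recorded in amphotericin-perforated patch mode. The test pulse was a 100 ms step to 0 mV from −70 mV, then a −70 to +70 mV ramp, applied before and after a 6 min compound incubation. Current amplitudes were compared.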

hROMK (hKir1.1) = hROMK (hKir1.1) (Homo sapiens (Human), UniProt P48048); assay: Thallium Flux Assay (ROMK channel functional thallium flux, FLIPR-Tetra); type: cell-based; details: read-out: Thallium Flux IC50
Outline: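 HEK293 cells stably expressing hROMK loaded with FluxOR dye for 90 min, then incubated with compound for 30 min at 23-25 °C. Normalized to a 3 μM standard ROMK inhibitor as % fluorescence change.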

[1] = Chinese hamster ovary cells stably expressing Kir1.1, read-out: Electrophysiology IC50
[2] = HEK293 cells stably expressing hROMK (hKir1.1)
[3] = Electrophysiology IC50, Chinese hamster ovary cells stably expressing Kir1.1

Chain of hROMK (hKir1.1) (P48048 whole entry): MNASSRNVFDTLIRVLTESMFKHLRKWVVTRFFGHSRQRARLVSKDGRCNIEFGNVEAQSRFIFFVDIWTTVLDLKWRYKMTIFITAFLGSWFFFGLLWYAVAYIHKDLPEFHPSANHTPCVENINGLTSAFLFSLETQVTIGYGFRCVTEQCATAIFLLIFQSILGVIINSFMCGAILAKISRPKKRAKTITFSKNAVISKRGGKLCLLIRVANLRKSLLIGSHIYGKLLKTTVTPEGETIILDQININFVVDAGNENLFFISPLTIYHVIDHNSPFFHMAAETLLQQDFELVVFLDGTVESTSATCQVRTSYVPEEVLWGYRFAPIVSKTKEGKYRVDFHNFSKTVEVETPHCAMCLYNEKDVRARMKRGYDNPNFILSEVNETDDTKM
Chain of Kir1.1 (ROMK1) (P48048 whole entry): as above

Work on `Cc1c([C@@H]2CN3CCN(C(=O)Cc4c(F)cc(-n5cnnn5)cc4F)C[C@H]3CO2)ccc(F)c1C#N` [Example 52, 3-[(3R,9aS)-8-{[2,6-difluoro-4-(1H-tetrazol-1-yl)phenyl]acetyl}octahydropyrazino[2,1-c][1,4]oxazin-3-yl]-6-fluoro-2-methylbenzonitrile] yielded an IC50 (Kir1.1 (ROMK1); [1]) of 70 nM and an IC50 (hROMK (hKir1.1); [2]) of 170 nM.

With `Cc1c([C@@H]2CN3CCN(C(=O)Cc4c(F)cc(-n5cnnn5)cc4F)C[C@@H]3CO2)ccc(F)c1C#N` [Example 53, 3-[(3R,9aR)-8-{[2,6-difluoro-4-(1H-tetrazol-1-yl)phenyl]acetyl}octahydropyrazino[2,1-c][1,4]oxazin-3-yl]-6-fluoro-2-methylbenzonitrile] the IC50 (Kir1.1 (ROMK1); [1]) was 110 nM and the IC50 (hROMK (hKir1.1); [2]) was 180 nM.

`Cc1c([C@@H]2CN3CCN(C(=O)Cc4cc(F)c(-n5cnnn5)cc4F)C[C@@H]3CO2)ccc(F)c1C#N` [Example 54, 3-[(3R,9aR)-8-{[2,5-difluoro-4-(1H-tetrazol-1-yl)phenyl]acetyl}octahydropyrazino[2,1-c][1,4]oxazin-3-yl]-6-fluoro-2-methylbenzonitrile] was tested, and the IC50 (Kir1.1 (ROMK1); [3]) was 100 nM and the IC50 (hROMK (hKir1.1)) was 100 nM.

For `Cc1c([C@@H]2CN3CCN(C(=O)Cc4cc(F)c(-n5cnnn5)cc4F)C[C@H]3CO2)ccc(F)c1C#N` [Example 55, 3-[(3R,9aS)-8-{[2,5-difluoro-4-(1H-tetrazol-1-yl)phenyl]acetyl}octahydropyrazino[2,1-c][1,4]oxazin-3-yl]-6-fluoro-2-methylbenzonitrile], the IC50 (Kir1.1 (ROMK1); [3]) was 100 nM and the IC50 (hROMK (hKir1.1); [2]) was 130 nM.

In the case of `Cc1c([C@@H]2CN3CCN(C(=O)Cc4cccc(-n5cnnn5)c4)C[C@@H]3CO2)ccc(F)c1C#N` [Example 56, 6-fluoro-2-methyl-3-[(3R,9aR)-8-{[3-(1H-tetrazol-1-yl)phenyl]acetyl}octahydropyrazino[2,1-c][1,4]oxazin-3-yl]benzonitrile], the IC50 (Kir1.1 (ROMK1); [1]) is reported as 60 nM and the IC50 (hROMK (hKir1.1); [2]) is reported as 200 nM.

Work on `Cc1c([C@H]2CN3CCN(C(=O)Cc4cccc(-n5cnnn5)c4)C[C@@H]3CO2)ccc(F)c1C#N` [Example 57, 6-fluoro-2-methyl-3-[(3S,9aR)-8-{[3-(1H-tetrazol-1-yl)phenyl]acetyl}octahydropyrazino[2,1-c][1,4]oxazin-3-yl]benzonitrile] yielded an IC50 (Kir1.1 (ROMK1); [1]) of 50 nM and an IC50 (hROMK (hKir1.1); [2]) of 140 nM.

For `Cc1c([C@H]2CN3CCN(C(=O)Cc4cc(-n5cnnn5)ccc4F)C[C@@H]3CO2)ccc(F)c1C#N` [Example 58, 6-fluoro-3-[(3S,9aR)-8-{[2-fluoro-5-(1H-tetrazol-1-yl)phenyl]acetyl}octahydropyrazino[2,1-c][1,4]oxazin-3-yl]-2-methylbenzonitrile], the IC50 (Kir1.1 (ROMK1); [1]) was 80 nM and the IC50 (hROMK (hKir1.1); [2]) was 180 nM.

`Cc1c([C@@H]2CN3CCN(C(=O)Cc4cc(-n5cnnn5)ccc4F)C[C@@H]3CO2)ccc(F)c1C#N` [Example 59, 6-fluoro-3-[(3R,9aR)-8-{[2-fluoro-5-(1H-tetrazol-1-yl)phenyl]acetyl}octahydropyrazino[2,1-c][1,4]oxazin-3-yl]-2-methylbenzonitrile] showed an IC50 (Kir1.1 (ROMK1); [1]) of 140 nM and an IC50 (hROMK (hKir1.1); [2]) of 360 nM.

With `Cc1c(CC(=O)N2CCN3C[C@@H](c4ccc(F)c(C#N)c4C)OC[C@H]3C2)cccc1-n1cnnn1` [Example 60, 6-fluoro-2-methyl-3-[(3R,9aR)-8-{[2-methyl-3-(1H-tetrazol-1-yl)phenyl]acetyl}octahydropyrazino[2,1-c][1,4]oxazin-3-yl]benzonitrile] the IC50 (Kir1.1 (ROMK1); [1]) was 420 nM and the IC50 (hROMK (hKir1.1); [2]) was 440 nM.

Compound `Cc1c(CC(=O)N2CCN3C[C@H](c4ccc(F)c(C#N)c4C)OC[C@H]3C2)cccc1-n1cnnn1` [Example 61, 6-fluoro-2-methyl-3-[(3S,9aR)-8-{[2-methyl-3-(1H-tetrazol-1-yl)phenyl]acetyl}octahydropyrazino[2,1-c][1,4]oxazin-3-yl]benzonitrile] has an IC50 (Kir1.1 (ROMK1); [1]) of 240 nM and an IC50 (hROMK (hKir1.1); [2]) of 340 nM.

In the case of `COc1ccc([C@H]2CN3CCN(C(=O)C4CCc5cc(-n6cnnn6)ccc54)C[C@H]3CO2)c(C)c1C#N` (stereo partly drawn) [Example 62, 6-methoxy-2-methyl-3-[(3S,9aS)-8-{[5-(1H-tetrazol-1-yl)-2,3-dihydro-1H-inden-1-yl]carbonyl}octahydropyrazino[2,1-c][1,4]oxazin-3-yl]benzonitrile], the IC50 (Kir1.1 (ROMK1); [1]) is reported as 650 nM and the IC50 (hROMK (hKir1.1); [2]) is reported as 200 nM.

With `COc1ccc([C@@H]2CN3CCN(C(=O)C4CCc5cc(-n6cnnn6)ccc54)C[C@H]3CO2)c(C)c1C#N` (stereo partly drawn) [Example 63, 6-methoxy-2-methyl-3-[(3R,9aS)-8-{[5-(1H-tetrazol-1-yl)-2,3-dihydro-1H-inden-1-yl]carbonyl}octahydropyrazino[2,1-c][1,4]oxazin-3-yl]benzonitrile] the IC50 (Kir1.1 (ROMK1); [1]) was 450 nM and the IC50 (hROMK (hKir1.1); [2]) was 180 nM.

`COc1cc([C@@H]2CN3CCN(C(=O)C4CCc5cc(-n6cnnn6)ccc54)C[C@@H]3CO2)ccc1C#N` (stereo partly drawn) [Example 64, 2-methoxy-4-[(3R,9aR)-8-{[5-(1H-tetrazol-1-yl)-2,3-dihydro-1H-inden-1-yl]carbonyl}octahydropyrazino[2,1-c][1,4]oxazin-3-yl]benzonitrile] was tested, and the IC50 (Kir1.1 (ROMK1); [1]) was 210 nM and the IC50 (hROMK (hKir1.1); [2]) was 270 nM.

For `COc1cc([C@@H]2CN3CCN(C(=O)C4CCc5cc(-n6cnnn6)ccc54)C[C@H]3CO2)ccc1C#N` (stereo partly drawn) [Example 65, 2-methoxy-4-[(3R,9aS)-8-{[5-(1H-tetrazol-1-yl)-2,3-dihydro-1H-inden-1-yl]carbonyl}octahydropyrazino[2,1-c][1,4]oxazin-3-yl]benzonitrile], the IC50 (Kir1.1 (ROMK1); [1]) was 350 nM and the IC50 (hROMK (hKir1.1); [2]) was 400 nM.

Work on `Cc1c([C@@H]2CN3CCN(C(=O)Cc4ccc(-n5cnnn5)cc4C#N)C[C@H]3CO2)ccc(F)c1C#N` [Example 67, 3-[(3R,9aS)-8-{[2-cyano-4-(1H-tetrazol-1-yl)phenyl]acetyl}octahydropyrazino[2,1-c][1,4]oxazin-3-yl]-6-fluoro-2-methylbenzonitrile] yielded an IC50 (Kir1.1 (ROMK1); [3]) of 170 nM and an IC50 (hROMK (hKir1.1); [2]) of 130 nM.

`Cc1c([C@@H]2CN3CCN(C(=O)Cc4ccc(-n5cnnn5)cc4C#N)C[C@@H]3CO2)ccc(F)c1C#N` [Example 68, 3-[(3R,9aR)-8-{[2-cyano-4-(1H-tetrazol-1-yl)phenyl]acetyl}octahydropyrazino[2,1-c][1,4]oxazin-3-yl]-6-fluoro-2-methylbenzonitrile] showed an IC50 (Kir1.1 (ROMK1); [3]) of 120 nM and an IC50 (hROMK (hKir1.1); [2]) of 210 nM.

In the case of `Cc1c([C@@H]2CN3CCN(C(=O)Cc4ccc(-n5cnnn5)cc4Cl)C[C@@H]3CO2)ccc(F)c1C#N` [Example 69, 3-[(3R,9aR)-8-{[2-chloro-4-(1H-tetrazol-1-yl)phenyl]acetyl}octahydropyrazino[2,1-c][1,4]oxazin-3-yl]-6-fluoro-2-methylbenzonitrile], the IC50 (Kir1.1 (ROMK1); [3]) is reported as 110 nM and the IC50 (hROMK (hKir1.1)) is reported as 100 nM.

`Cc1c([C@@H]2CN3CCN(C(=O)Cc4ccc(-n5cnnn5)cc4Cl)C[C@H]3CO2)ccc(F)c1C#N` [Example 70, 3-[(3R,9aS)-8-{[2-chloro-4-(1H-tetrazol-1-yl)phenyl]acetyl}octahydropyrazino[2,1-c][1,4]oxazin-3-yl]-6-fluoro-2-methylbenzonitrile] showed an IC50 (Kir1.1 (ROMK1); [3]) of 160 nM and an IC50 (hROMK (hKir1.1); [2]) of 250 nM.

`Cc1c([C@H]2CN3CCN(C(=O)Cc4ccc(-n5cnnn5)cc4)C[C@H]3CO2)ccc2nonc12` [Example 75, (3S,9aS)-3-(4-methyl-2,1,3-benzoxadiazol-5-yl)-8-{[4-(1H-tetrazol-1-yl)phenyl]acetyl}octahydropyrazino[2,1-c][1,4]oxazine] was tested, and the IC50 (Kir1.1 (ROMK1); [1]) was 120 nM and the IC50 (hROMK (hKir1.1); [2]) was 210 nM.

`Cc1c([C@@H]2CN3CCN(C(=O)Cc4ccc(-n5cnnn5)cc4)C[C@H]3CO2)ccc2nonc12` [Example 76, (3R,9aS)-3-(4-methyl-2,1,3-benzoxadiazol-5-yl)-8-{[4-(1H-tetrazol-1-yl)phenyl]acetyl}octahydropyrazino[2,1-c][1,4]oxazine] showed an IC50 (Kir1.1 (ROMK1); [1]) of 220 nM and an IC50 (hROMK (hKir1.1); [2]) of 220 nM.

With `O=C(Cc1ccc(-n2cnnn2)cc1)N1CCN2C[C@@H](c3ccc4nonc4c3)OC[C@@H]2C1` [Example 77, (3R,9aS)-3-(2,1,3-benzoxadiazol-5-yl)-8-{[4-(1H-tetrazol-1-yl)phenyl]acetyl}octahydropyrazino[2,1-c][1,4]oxazine] the IC50 (Kir1.1 (ROMK1); [3]) was 50 nM and the IC50 (hROMK (hKir1.1); [2]) was 150 nM.

`O=C(C1CCc2cc(-n3cnnn3)ccc21)N1CCN2C[C@@H](c3ccc4nonc4c3)OC[C@@H]2C1` (stereo partly drawn) [Example 78, (3R,9aS)-3-(2,1,3-benzoxadiazol-5-yl)-8-{[5-(1H-tetrazol-1-yl)-2,3-dihydro-1H-inden-1-yl]carbonyl}octahydropyrazino[2,1-c][1,4]oxazine] was tested, and the IC50 (Kir1.1 (ROMK1); [1]) was 100 nM and the IC50 (hROMK (hKir1.1); [2]) was 210 nM.

Work on `Cc1c([C@@H]2CN3CCN(C(=O)Cc4c(F)cc(-n5cnnn5)cc4F)C[C@@H]3CO2)ccc2c1COC2=O` [Example 79, 5-[(3R,9aR)-8-{[2,6-difluoro-4-(1H-tetrazol-1-yl)phenyl]acetyl}octahydropyrazino[2,1-c][1,4]oxazin-3-yl]-4-methyl-2-benzofuran-1(3H)-one] yielded an IC50 (Kir1.1 (ROMK1); [1]) of 190 nM and an IC50 (hROMK (hKir1.1); [2]) of 260 nM.

`Cc1c([C@@H]2CN3CCN(C(=O)Cc4ccc(-n5cnnn5)cc4)C[C@H]3CN2)ccc(F)c1C#N` [Example 99, 3-((3R,9aR)-8-(2-(4-(1H-tetrazol-1-yl)phenyl)acetyl)octahydro-1H-pyrazino[1,2-a]pyrazin-3-yl)-6-fluoro-2-methylbenzonitrile] showed an IC50 (Kir1.1 (ROMK1); [1]) of 180 nM and an IC50 (hROMK (hKir1.1); [2]) of 70 nM.

With `Cc1c([C@H]2CN3CCN(C(=O)Cc4ccc(-n5cnnn5)cc4)C[C@H]3CN2)ccc2c1COC2=O` [Example 100] the IC50 (Kir1.1 (ROMK1); [3]) was 250 nM and the IC50 (hROMK (hKir1.1); [2]) was 430 nM.

`Cc1c([C@H]2CN3CCN(C(=O)Cc4ccc(-n5cnnn5)cc4)C[C@H]3CN2)ccc(F)c1C#N` [Example 101] was tested, and the IC50 (Kir1.1 (ROMK1); [3]) was 50 nM and the IC50 (hROMK (hKir1.1); [2]) was 60 nM.
